Reference: patent US8518952B2, “6 substituted 2-heterocyclylamino pyrazine compounds as CHK-1 inhibitors” (Pfizer Inc., priority 2008, dated 2013)

How the values were obtained:
[1] = biological target: T1, CHK1 (kinase domain) (Homo sapiens, UniProt O14757); assay: CHK1 Ki determination, spectrophotometric coupled (pyruvate kinase/lactate dehydrogenase) assay; format: biochemical; conditions: CHK-1 kinase domain; 150 uM ATP, 125 uM Syntide 2
T1 construct: a solution containing 1 nM of CHK1 (kinase domain)
T1 sequence (O14757 9-265 limits assumed): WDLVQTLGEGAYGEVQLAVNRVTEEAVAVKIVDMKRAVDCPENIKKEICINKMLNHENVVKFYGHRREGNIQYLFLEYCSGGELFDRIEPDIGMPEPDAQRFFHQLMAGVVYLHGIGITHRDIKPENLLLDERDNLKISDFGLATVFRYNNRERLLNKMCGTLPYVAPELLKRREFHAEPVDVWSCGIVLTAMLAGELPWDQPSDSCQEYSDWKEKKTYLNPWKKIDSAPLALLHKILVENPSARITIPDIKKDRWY
Summary of the method: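 The CHK1 kinase domain was pre-incubated with compound for 15 min, and the reaction was started with 125 uM Syntide 2 and 150 uM ATP. ADP formation was coupled through pyruvate kinase/lactate dehydrogenase to NADH oxidation, read as the A340 decrease. Kiapp was fitted with a tight-binding equation that accounts for enzyme concentration and ATP Km; some entries are % inhibition.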

[2] = tested on: Mia Paca-2 cells; assay: Histone H3 (Ser10) phosphorylation ELISA, abrogation of camptothecin-induced G2 arrest (CHK-1 cellular assay); format: cell-based; conditions: camptothecin 8 hrs, then compound with nocodozole 16 hours
Method: The Histone H3 phosphorylation ELISA assay detects cells entering mitosis and represents the primary in vitro cell-based assay used to measure the cellular potency of compounds in abrogating the G2 check point induced by DNA damage in HeLa cells or MiaPaCa cells. The candidate substances were assayed for potency in their ability to inhibit camptothecin-induced G2 arrest, as measured by an increase in Histone H3 phosphorylation on Ser10, a marker of entry into mitosis.
The PathScan Phospho-Histone H3 (Ser10) Sandwich ELISA kit was used (Cell Signaling, #7155) and the assay was performed according to manufacturer recommendations. Tissue culture plates were seeded with HeLa cells or MiaPaCa Cells and allowed to attach overnight. The cells were then treated with camptothecin to induce DNA damage for 8 hrs. Candidate substances or diluent were then added in the presence of nocodozole for 16 hours. Cells were then lysed with buffer from Assay Designs (#80-1114) supplemented with protease inhibitors and frozen overnight. The fresh whole cell lysates were then thawed and added to the ELISA plate with shaking for 3 hours. Between all subsequent steps plates were washed 4 times with PBST. Biotinylated phospho Histone H3 (ser10) detection antibody was added for 1 hour, followed by addition of horseradish peroxidase-linked streptavidin secondary antibody for 1 hour. Color development of the antibody was performed with addition of TMB substrate and incubation for 2 minutes on a plate shaker. Stop solution was added and plates were read with absorbance at 450 nm on a spectrophotometer. EC50 values were calculated by sigmoid curve fitting using a four-parameter analysis.
Under the “Ki” column, data entries in the format of “%” are percent inhibition data where no Ki data is available. Data entry under the “EC50” column with an * are data obtained using Mia Paca-2 cells rather than HeLa cells. Data is not available where noted as n/a.

[3] = Homo sapiens, MIA PaCa-2, Mia Paca-2 cells (entries marked *)
[4] = Homo sapiens, Mia Paca-2 cells (entries marked *)

Ki [1] [µM]	EC50 [2, 3] [µM]	EC50 [2, 4] [µM]	EC50 ([2]; Mia Paca-2 cells (entries marked *)) [µM]	Structure (SMILES)
0.0173	–	0.589	–	CC(C)c1cn2c(-c3cncc(N[C@@H]4CC[C@@H](C)NC4)n3)cnc2s1 [Example 110, 6-(2-isopropylimidazo[2,1-b][1,3]thiazol-5-yl)-N-[(3R,6R)-6-methylpiperidin-3-yl]pyrazin-2-amine]
0.0343	–	0.686	–	Cc1nn2c(-c3cncc(N[C@@H]4CCCNC4)n3)cnc2s1 [Example 120, 6-(2-methylimidazo[2,1-b][1,3,4]thiadiazol-5-yl)-N-[(3R)-piperidin-3-yl]pyrazin-2-amine]
0.000929	–	0.0108	–	C[C@@H]1CNC[C@@H]1Nc1cncc(-c2cnc3cc(Cl)ccn23)n1 [Example 129, 6-(7-chloroimidazo[1,2-a]pyridin-3-yl)-N-[(3R,4R)-4-methylpyrrolidin-3-yl]pyrazin-2-amine]
0.00486	–	0.139	–	FC[C@@H]1CNC[C@@H]1Nc1cncc(-c2cnc3ccccn23)n1 [Example 130, N-[(3R,4R)-4-(fluoromethyl)pyrrolidin-3-yl]-6-imidazo[1,2-a]pyridin-3-ylpyrazin-2-amine]
0.0126	–	0.208	–	Cc1cn2c(-c3cncc(N[C@@H]4CCCNC4)n3)cnc2cn1 [Example 135, 6-(6-methylimidazo[1,2-a]pyrazin-3-yl)-N-[(3R)-piperidin-3-yl]pyrazin-2-amine]
0.0024	0.256	–	–	Oc1ccn2c(-c3cncc(N[C@@H]4CCCNC4)n3)cnc2c1 [Example 137, 3-{6-[(3R)-piperidin-3-ylamino]pyrazin-2-yl}imidazo[1,2-a]pyridin-7-ol]
0.00149	–	0.125	–	COc1ccc2ncn(-c3cncc(N[C@@H]4CCCNC4)n3)c2c1 [Example 142, 6-(6-methoxy-1H-benzimidazol-1-yl)-N-[(3R)-piperidin-3-yl]pyrazin-2-amine]
0.00318	–	0.167	–	C[C@@H]1C[C@@H](Nc2cncc(-c3cnc4ccccn34)n2)CN1 [Example 144, 6-imidazo[1,2-a]pyridin-3-yl-N-[(3R,5R)-5-methylpyrrolidin-3-yl]pyrazin-2-amine]
0.0039	–	0.602	–	CC1(COc2ccn3c(-c4cncc(N[C@@H]5CCNC5)n4)cnc3c2)COC1 [Example 154, 6-{7-[(3-methyloxetan-3-yl)methoxy]imidazo[1,2-a]pyridin-3-yl}-N-[(3R)-pyrrolidin-3-yl]pyrazin-2-amine]
0.001	–	0.0461	–	CC1(COc2ccn3c(-c4cncc(N[C@@H]5CCCNC5)n4)cnc3c2)COC1 [Example 155, 6-{7-[(3-methyloxetan-3-yl)methoxy]imidazo[1,2-a]pyridin-3-yl}-N-[(3R)-piperidin-3-yl]pyrazin-2-amine]
0.0217	–	0.0733	–	COC[C@@H]1C[C@@H](Nc2cncc(-c3cnc4ccccn34)n2)CN1 [Example 157, 6-(imidazo[1,2-a]pyridin-3-yl)-N-[(3R,5S)-5-(methoxymethyl)pyrrolidin-3-yl]pyrazin-2-amine]
0.0498	–	0.129	–	CC(C)OC[C@@H]1C[C@@H](Nc2cncc(-c3cnc4ccccn34)n2)CN1 [Example 158, 6-(imidazo[1,2-a]pyridin-3-yl)-N-{(3R,5S)-5-[(propan-2-yloxy)methyl]pyrrolidin-3-yl}pyrazin-2-amine]
0.00107	–	0.0257	–	CC(C)c1cn2c(-c3cncc(N[C@@H]4CCCNC4)n3)cnc2s1 [Example 160, N-[(3R)-piperidin-3-yl]-6-[2-(propan-2-yl)imidazo[2,1-b][1,3]thiazol-5-yl]pyrazin-2-amine]

The remaining lines, values behind:

Structure (SMILES)	Ki [1] [µM]	EC50 [2, 3] [µM]	EC50 [2, 4] [µM]	EC50 ([2]; Mia Paca-2 cells (entries marked *)) [µM]
Clc1ccc2ncc(-c3cncc(N[C@@H]4CCCNC4)n3)n2c1 [Example 5, 6-(6-Chloroimidazo[1,2-a]pyridin-3-yl)-N-[(3R)-piperidin-3-yl]pyrazin-2-amine]	0.00249	0.0183	–	–
COc1ccc2ncc(-c3cncc(N[C@@H]4CCCNC4)n3)n2c1 [Example 7, 6-(6-Methoxyimidazo[1,2-a]pyridin-3-yl)-N-[(3R)-piperidin-3-yl]pyrazin-2-amine]	0.00165	–	0.0167	–
FC(F)(F)c1ccc2ncc(-c3cncc(N[C@@H]4CCNC4)n3)n2c1 [Example 13, N-[(3R)-pyrrolidin-3-yl]-6-[6-(trifluoromethyl)imidazo[1,2-a]pyridin-3-yl]pyrazin-2-amine]	0.0128	–	0.513	–
C[C@@H]1CNC[C@@H]1Nc1cncc(-c2cnc3ccc(C(C)(C)O)cn23)n1 [Example 14, 2-[3-(6-{[(3R,4R)-4-methylpyrrolidin-3-yl]amino}pyrazin-2-yl)imidazo[1,2-a]pyridin-6-yl]propan-2-ol]	0.0336	–	4.21	–
Cc1ncc(-c2cnc3ccccn23)nc1N[C@@H]1CCCNC1 [Example 16, 6-(imidazo[1,2-a]pyridin-3-yl)-3-methyl-N-[(3R)-piperidin-3-yl]pyrazin-2-amine]	0.0194	0.0811	–	–
COc1cc2c(cn1)ncn2-c1cncc(N[C@@H]2CCCNC2)n1 [Example 17, 6-(6-methoxy-1H-imidazo[4,5-c]pyridin-1-yl)-N-[(3R)-piperidin-3-yl]pyrazin-2-amine]	0.00641	–	0.0595	–
COc1cc2ncn(-c3cncc(N[C@@H]4CCCNC4)n3)c2cn1 [Example 18, 6-(6-methoxy-3H-imidazo[4,5-c]pyridin-3-yl)-N-[(3R)-piperidin-3-yl]pyrazin-2-amine]	0.00123	–	0.0191	–
COc1ccn2c(-c3cncc(N[C@@H]4C5CCN(CC5)[C@@H]4C)n3)cnc2c1 [Example 19, (2R,3R)—N-[6-(7-methoxyimidazo[1,2-a]pyridin-3-yl)pyrazin-2-yl]-2-methyl-1-azabicyclo[2.2.2]octan-3-amine]	0.167	–	10	–
N#Cc1ncc(N[C@@H]2CCCNC2)nc1-c1cnc2ccccn12 [Example 20, 3-(imidazo[1,2-a]pyridin-3-yl)-5-[(3R)-piperidin-3-ylamino]pyrazine-2-carbonitrile]	0.93	10	–	–
N#Cc1ccc2c(-c3cncc(N[C@@H]4CCCNC4)n3)cnn2c1 [Example 21, 3-{6-[(3R)-piperidin-3-ylamino]pyrazin-2-yl}pyrazolo[1,5-a]pyridine-6-carbonitrile]	0.00602	–	0.0688	–
N#Cc1ccn2c(-c3cncc(N[C@@H]4CCCNC4)n3)cnc2c1 [Example 24, 3-{6-[(3R)-piperidin-3-ylamino]pyrazin-2-yl}imidazo[1,2-a]pyridine-7-carbonitrile]	0.00638	0.178	–	–
CO[C@H]1CCNC[C@@H]1Nc1cncc(-c2cnc3ccccn23)n1 [Example 29, 6-imidazo[1,2-a]pyridin-3-yl-N-[(3S,4S)-4-methoxypiperidin-3-yl]pyrazin-2-amine]	0.00551	–	–	0.0868
COc1ccc2c(-c3cncc(N[C@@H]4CCCNC4)n3)cnn2c1 [Example 33, 6-(6-methoxypyrazolo[1,5-a]pyridin-3-yl)-N-[(3R)-piperidin-3-yl]pyrazin-2-amine]	0.001	–	0.00727	–
COc1ccn2c(-c3cncc(N[C@@H]4CCCNC4)n3)cnc2c1 [Example 37, 6-(7-Methoxyimidazo[1,2-a]pyridin-3-yl)-N-[(3R)-piperidin-3-yl]pyrazin-2-amine]	0.00203	0.021	–	–
NC(=O)c1ccn2c(-c3cncc(N[C@@H]4CCCNC4)n3)cnc2c1 [Example 86, 3-{6-[(3R)-piperidin-3-ylamino]pyrazin-2-yl}imidazo[1,2-a]pyridine-7-carboxamide]	0.00168	0.295	–	–
Fc1ccc2ncc(-c3cncc(N[C@@H]4CCCNC4)n3)n2c1 [Example 87, 6-(6-fluoroimidazo[1,2-a]pyridin-3-yl)-N-[(3R)-piperidin-3-yl]pyrazin-2-amine]	0.00863	0.127	–	–
c1ccn2c(-c3cncc(N[C@@H]4C[C@@H]5CN[C@H]4C5)n3)cnc2c1 [Example 123, (1S,4R,6R)-N-(6-imidazo[1,2-a]pyridin-3-ylpyrazin-2-yl)-2-azabicyclo[2.2.1]heptan-6-amine]	0.00322	–	0.0229	–
